This passage reports indel % results from patent publication US12171813B2, “Methods of and compositions for reducing gene expression and/or activity” (Christiana Care Gene Editing Institute, Inc., priority 2021, dated 2024).

One data set concerns EGFR gene. The experiment in a line: Screening of SureKill guide RNAs in the EGFR gene for ability to induce indels. Type of data set: cell-based. As to conditions: transfections of individual guide RNAs (spCas9 RNP); PDMR human lung adenocarcinoma cells with EGFR L858R; DECODR. As to the method:
(§1) Human lung squamous cell carcinoma NCI-H1703 clone 44-25 cells were derived from NCI-H1703 cells (#CRL-5889) which were purchased from ATCC (Manassas, VA, USA). NCI-H1703 clone 44-25 cells contains R34G mutation (C 4 G) in NFE2L2 gene. H1703 clone 44-25 cells were cultured in ATCC formulation RPMI-1640 with 10% FBS. T75 flasks were used and cells were split 1:5 upon reaching 90% confluency. Human lung adenocarcinoma cells (Dist. Lot. No. LG0703-F948-PDC) were acquired from the National Institute of Health's National Cancer Institute's Patient-Derived Models Repository (PDMR). This PDMR cell line contains the L858R mutation (T 4 G) in the EGFR gene. The PDMR cells were maintained in Advanced DMEM/F12 media containing 10% FBS, 0.4 μg/mL hydrocortisone, 0.01 μg/mL EGF Recombinant Human Protein, 24 μg/mL adenine, and 2 mM L-Glutamine. T75s were used and cells were split 1:3 upon reaching 90% confluency. All cultures were maintained in cell culture incubators at 37° C. and 5% CO2.
(§2) Ribonucleoproteins (RNP) are complexed by incubating 250 pmol of purified synthetic gRNA (Synthego Corporation, Redwood City, CA) with 50 pmol of purified spCas9 (Synthego Corporation, Redwood City, CA) at room temperature in nuclease-free 1× TE buffer for 15 minutes.
(§3) Transfections were carried out using the Lonza Nuclefector 4d. Cultures in t75s at 90% confluence were split 1:2 24 hours prior to transfection. RNPs were complexed at 250:50 pmol for 30 minutes prior to transfection, during which time cells were harvested and counted. All reactions were 100 μL and contained 1 e6 cells. Lonza SF solution and Nucleofector program CM-130 were used in all transfections of the H1703 cell line. Lonza SE solution and Nucleofector program CA-137 were used in all transfections of the PDMR. After transfection, 500 μL of media that had been equilibrated to cell culture CO2 and temperature conditions was added to each 100 μL cuvettes. Cuvettes were then placed in the incubator. After 20 minutes, the entire content of each cuvette was seeded into 3 mL of media in a 6 well plate. After 72 hours, samples were dissociated using 200 μL Trypsin 0.25% for 5 minutes. 800 μL culture media was used to quench and split into 1.5 mL tubes each containing 500 μL of the sample. Tubes were spun at 300×g for 5 minutes. One of the tubes was placed in the −20° C. freezer and the other was resuspended in 500 μL of Trizol for RNA extraction and cDNA synthesis.
(§4) All sequencing was performed on the Applied Biosystems SeqStudio. The BigDye Terminator v3.1 Cycle Sequencing Kit was used to prepare samples for sequencing. Resulting sequences were analyzed with DECODR to determine indel rates (Bloh et al., CRISPR J. 4:120-31 (2021)).
Human EGFR is a frequently mutated gene that is associated with cancers. One of the most common mutations is L858R which results in the creation of a novel PAM site, making it a targetable sequence by CRISPR. Like the R34G mutation, the CRISPR designed to target the L858R mutation is not highly efficient on its own. By combining the L858R-targeting CRISPR with another CRISPR of high efficiency in a downstream intronic region, exon skipping can be induced, resulting in a higher efficiency of functional knockout than the L858R targeting CRISPR alone. To find a suitable gRNA to pair with the L858R targeting CRISPR, we selected the intron between exons 21 and 22 (FIG. 6). A series of gRNAs were created in this region and screened for their ability to induce indels, a measure of their activity using DECODR (Bloh et al., CRISPR J. 4:120-31 (2021)) (Table 3).
In Table 3, all sequences are listed from 5′ to 3′. Indel percent, a measure of CRISPR activity, is based on transfections of individual guide RNAs. All guide RNAs, with the exception of L858R, were designed in the intron between exons 21 and 22.

A further data set has as its system NFE2L2 gene. The experiment in a line: Screening of SureKill guide RNAs in the NFE2L2 gene for ability to induce indels. As to conditions: transfections of individual guide RNAs (spCas9 RNP); NCI-H1703 clone 44-25 cells; DECODR. In kind it is cell-based, Human. As to the method: as §1, §2, §3, §4
In some cancers, human NRF2 contains a mutation, R34G, that creates a novel PAM site making it a targetable sequence by CRISPR. By combining the R34G-targeting CRISPR with another CRISPR of high efficiency in a downstream intronic region, exon skipping can be induced, resulting in a higher efficiency of functional knockout than the R34G targeting CRISPR alone. To find a suitable SureKill guide RNA (gRNA) to pair with the R34G targeting CRISPR, we selected the intron between exons 3 and 4 (FIG. 2). A series of gRNAs were created in this region and screened for their ability to induce indels, a measure of their activity (Table 2).
In Table 2, all sequences are listed from 5′ to 3′. Indel %, a measure of CRISPR activity, is based on transfections of individual guide RNAs. All guide RNAs, with the exception of R34G, were designed in the intron between exons 3 and 4.

With “L858R gRNA: guide RNA TCAAGATCACAGATTTTGGG, SEQ ID NO:8, targets EGFR L858R mutation (listed as DNA, chemistry not given here)”, the indel % in the data set with EGFR gene was determined as 73.2%.
The substance “R34G gRNA: guide RNA GATATAGATCTTGGAGTAAG, SEQ ID NO:1, targets NRF2 R34G mutation (listed as DNA, chemistry not given here)” came in with an indel % with NFE2L2 gene of 83%.
